Reference: US10745365B2, “Luminogenic and fluorogenic compounds and methods to detect molecules or conditions” (Promega Corporation, priority 2005, dated 2020)
Blank lines part the entries; values can stand above or below the molecule they belong to.

Key:
Format in all cases: biochemical
[1] = test system: panel of recombinant human P450s; experiment: Two-step luminescent screen of luciferin derivatives against a panel of recombinant human P450s and HLM; conditions: 50 μM substrate, panel of FIGS. 17-18
Description: P450s are Supersomes™ purchased from Discovery Labware (BD/Gentest). […] HLM is human liver microsomes.
1× substrate concentration: 50 μM.
The HLM reactions contained […] reaction, except where indicated otherwise. Control insect cell membranes were at 50 μg/50 μL.
For FIG. 20, the panel of human P450s was screened as described above.

[2] = test system: thermostable luciferase (Luc 146-1H2); experiment: Residual active thermostable luciferase after reaction with derivative (Steady Glo); conditions: substrate 100; +DTT; sample taken 60 min
Description: After assembly, the reactions were initiated by addition of 25 μl of the thermostable luciferase stock solution above and mixing the tube contents. A 50 μl sample was immediately removed and placed in a luminometer tube and the light read and the tube then replaced in a tube rack at room temperature. While the light reading was being taken, a 5 μl sample of the remaining reaction (which was kept at room temperature) was diluted into 495 μl of 50 mM BisTris, pH 6.5, 1 mg/ml BSA, 1 mM EDTA prechilled to 4° C. and the tube mixed and placed on ice. The light produced by the samples in the luminometer tubes were re-read at 20, 40, 60, 90 and 120 minutes post enzyme addition. Additional 5 μl samples were taken and diluted as above at 60 and 120 minutes post enzyme addition. Once all these readings and samples were taken, 50 μl of the diluted samples was mixed with 50 μl of Steady Glo in luminometer tubes, the tubes incubated 10 minutes […] then the light produced was read on a Turner TD 20/20 luminometer.

[3] = target: T1, QuantiLum Luciferase (firefly luciferase) (Photinus pyralis, UniProt P08659); experiment: Light emission of QuantiLum firefly luciferase with luciferin derivatives
T1 construct: purchased Promega Corporation El 70
Description: Gel and HPLC stop solution. Solid EDTA (free acid) was placed in a beaker with water and the pH of the solution adjusted to pH 7.0. The solution was then adjusted in volume to produce a solution 400 mM in EDTA.
Enzyme stop solution. A solution was prepared containing 20 mM Bis Tris, pH 6.5, 2 mM EDTA and 1 mg/ml bovine serum albumin.
Reaction buffer (2×). A solution was made containing 100 mM HEPES buffer, pH 8.0; 10 mM MgCl2.
DTT stock. Solid DTT (dithiothreitol) was dissolved in water and then adjusted to pH 8.0 with solid sodium hydroxide. The solution was then adjusted in volume to produce a solution 1 M in DTT.
(§1) After producing the solutions in Table 37, the volume of all reactions was adjusted to 990 μl with water. […] While the light reading was being taken, a 10 μl sample of the reaction was diluted to 500 μl with enzyme stop solution (cooled on ice to 4° C.) mixed and placed on ice and a second sample of 90 μl of reaction was added to 10 μl of Gel/HPLC stop and the tube placed at −20° C. A timer was started with the start of the first reaction and the start times of the remaining reactions was noted. At 15, 30, 45 and 60 minutes, each reaction was sampled as above and the light produced in the luminometer tubes was measured. At 7 and 22 minutes, the light produced in the luminometer tubes was read, but the reactions were not sampled.
as §1, with “40,” for “37,”, “−200” for “−20°”
The DTT, Coenzyme A, and QuantiLum stock solutions are the same as those described herein.
This solution was diluted 1:1 with water to produce an enzyme solution labeled “No addition.” This solution was diluted 1:1 with 400 mM DTT, pH 8.0 to produce a solution labeled+DTT. This solution was diluted 1: 1 with 4 mM Coenzyme A to produce a solution labeled+Co A. Finally, this solution was diluted 1: 1 with a solution having both 4 mM Coenzyme A and 400 mM DTT to produce a solution labeled+Co A & DTT.
50 μl samples of these solutions were placed in the wells of luminometer microtiter plates, row A to row G, respectively. Row H of the plates was given 50 μl of water.
Reactions in these plates were initiated by addition of 50 μl of solution containing QuantiLum luciferase using a 12 channel micropipette. The solutions added to the rows were: columns 1, 5, and 9—no addition solution; columns 2, 6, and 10—+Co A solution; columns 3, 7, and 11—+DTT solution, and; columns 4, 8, and 12—+Co A and DTT solution. After addition of the enzyme solution to the first row on every plate, a timer was started. After addition of the enzyme solution to the last row on each plate, the plate was sealed and read on a Veritas luminometer.

[4] = target: T1, QuantiLum Luciferase (firefly luciferase); experiment: Residual active QuantiLum luciferase after reaction with derivative (Steady Glo)
Description: as §1
After all samples were taken, 50 μl of the sample diluted into enzyme stop solution was mixed with 50 μl of Steady Glo Luciferase Reagent (Promega) and the light produced measured after incubating at room temperature for 10 minutes. This measured the active luciferase in the initial reaction.
as §1, with “40,” for “37,”, “−200” for “−20°”

T1 sequence (P08659 whole entry): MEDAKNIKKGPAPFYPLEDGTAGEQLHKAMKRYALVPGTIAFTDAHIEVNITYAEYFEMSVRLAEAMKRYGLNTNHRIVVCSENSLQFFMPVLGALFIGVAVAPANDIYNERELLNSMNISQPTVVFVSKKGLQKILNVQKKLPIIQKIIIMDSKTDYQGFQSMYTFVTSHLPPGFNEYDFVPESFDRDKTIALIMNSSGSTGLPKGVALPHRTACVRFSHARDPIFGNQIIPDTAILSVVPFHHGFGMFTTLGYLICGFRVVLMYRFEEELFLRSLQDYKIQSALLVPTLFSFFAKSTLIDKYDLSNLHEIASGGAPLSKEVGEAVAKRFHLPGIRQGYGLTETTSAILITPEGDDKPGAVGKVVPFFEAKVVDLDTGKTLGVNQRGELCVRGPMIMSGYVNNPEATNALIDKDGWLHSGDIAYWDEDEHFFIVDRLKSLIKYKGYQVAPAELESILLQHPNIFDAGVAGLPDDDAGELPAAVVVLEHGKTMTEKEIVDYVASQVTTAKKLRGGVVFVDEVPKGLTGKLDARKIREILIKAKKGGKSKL

P450 enzyme activity / selectivity (words) [1]: preference for 2D6, 1A1 and 1A2
Molecule: COc1ccc2nc(C3=NC(C(=O)OCc4cccnc4)CS3)sc2c1 (stereo not shown)

Molecule: 4-(O-methyl)-6-(O-methyl)-luciferin
P450 enzyme activity / selectivity (words) [1]: enhanced selectivity for 1 A2, 2C8 and 2C9

Molecule: 4-methyl-6-(O-methyl)-luciferin
P450 enzyme activity / selectivity (words) [1]: enhanced selectivity for 1 A2, 2C8 and 2C9

Molecule: O=C(O)[C@H]1CSC(c2nc3ccc(OCc4ccccc4)cc3s2)=N1 [L'in-BE]
light value of diluted reaction sample in Steady Glo [2]: 962.1

Molecule: O=C(O)[C@H]1CSC(c2nc3ccc(OCc4ccccc4)cc3s2)=N1 [Luc’in BE]
Light reading at time 0 min ([3]; +Co A): 139.5
Light reading at time 7 min ([3]; +Co A): 11.92
Light reading at time 15 min ([3]; +Co A): 10.99
Light reading at time 22 min ([3]; +Co A): 9.941
Light reading at time 30 min ([3]; +Co A): 7.379
Light reading at time 45 min ([3]; +Co A): 7.284
Light reading at time 60 min ([3]; +Co A): 6.433
Light reading at time 0 min ([3]; +DTT): 948
Light reading at time 7 min ([3]; +DTT): 532.8
Light reading at time 15 min ([3]; +DTT): 417
Light reading at time 22 min ([3]; +DTT): 369.5
Light reading at time 30 min ([3]; +DTT): 331.6
Light reading at time 45 min ([3]; +DTT): 273.5
Light reading at time 60 min ([3]; +DTT): 226.9
Light reading at time 0 min ([3]; +EDTA): 1.004
Light reading at time 7 min ([3]; +EDTA): 0.771
Light reading at time 15 min ([3]; +EDTA): 0.639
Light reading at time 22 min ([3]; +EDTA): 0.562
Light reading at time 30 min ([3]; +EDTA): 0.461
Light reading at time 45 min ([3]; +EDTA): 0.425
Light reading at time 60 min ([3]; +EDTA): 0.354
Light reading at time 0 min ([3]; No addition): 135.2
Light reading at time 7 min ([3]; No addition): 22.61
Light reading at time 15 min ([3]; No addition): 12.79
Light reading at time 22 min ([3]; No addition): 9.256
Light reading at time 30 min ([3]; No addition): 6.928
Light reading at time 45 min ([3]; No addition): 4.879
Light reading at time 60 min ([3]; No addition): 3.311
Light reading at time 0 min ([3]; w/o ATP): 0.015
Light reading at time 7 min ([3]; w/o ATP): 0
Light reading at time 15 min ([3]; w/o ATP): 0.008
Light reading at time 22 min ([3]; w/o ATP): 0.005
Light reading at time 30 min ([3]; w/o ATP): 0
Light reading at time 45 min ([3]; w/o ATP): 0
Light reading at time 60 min ([3]; w/o ATP): 0.01
Light reading from residual active enzyme at time 0 min ([4]; +Co A): 186.7
Light reading from residual active enzyme at time 15 min ([4]; +Co A): 179.6
Light reading from residual active enzyme at time 30 min ([4]; +Co A): 179.4
Light reading from residual active enzyme at time 45 min ([4]; +Co A): 157.9
Light reading from residual active enzyme at time 60 min ([4]; +Co A): 161.8
Light reading from residual active enzyme at time 0 min ([4]; +DTT): 194
Light reading from residual active enzyme at time 15 min ([4]; +DTT): 233.7
Light reading from residual active enzyme at time 30 min ([4]; +DTT): 224.7
Light reading from residual active enzyme at time 45 min ([4]; +DTT): 219.5
Light reading from residual active enzyme at time 60 min ([4]; +DTT): 226.4
Light reading from residual active enzyme at time 0 min ([4]; +EDTA): 170
Light reading from residual active enzyme at time 15 min ([4]; +EDTA): 142.7
Light reading from residual active enzyme at time 30 min ([4]; +EDTA): 140.4
Light reading from residual active enzyme at time 45 min ([4]; +EDTA): 141.7
Light reading from residual active enzyme at time 60 min ([4]; +EDTA): 135.4
Light reading from residual active enzyme at time 0 min ([4]; No addition): 129.7
Light reading from residual active enzyme at time 15 min ([4]; No addition): 69.9
Light reading from residual active enzyme at time 30 min ([4]; No addition): 47.31
Light reading from residual active enzyme at time 45 min ([4]; No addition): 37.94
Light reading from residual active enzyme at time 60 min ([4]; No addition): 29.08
Light reading from residual active enzyme at time 0 min ([4]; w/o ATP): 168.3
Light reading from residual active enzyme at time 15 min ([4]; w/o ATP): 174.1
Light reading from residual active enzyme at time 30 min ([4]; w/o ATP): 171.7
Light reading from residual active enzyme at time 45 min ([4]; w/o ATP): 172.9
Light reading from residual active enzyme at time 60 min ([4]; w/o ATP): 164

Molecule: COc1ccc2nc(C3=NC(C(=O)O)CS3)sc2c1 (stereo not shown) [Luc’in ME]
Light reading at time 0 min ([3]; +Co A): 18.31
Light reading at time 7 min ([3]; +Co A): 2.276
Light reading at time 15 min ([3]; +Co A): 1.239
Light reading at time 22 min ([3]; +Co A): 1.178
Light reading at time 30 min ([3]; +Co A): 1.145
Light reading at time 45 min ([3]; +Co A): 0.916
Light reading at time 60 min ([3]; +Co A): 0.714
Light reading at time 0 min ([3]; +DTT): 38.69
Light reading at time 7 min ([3]; +DTT): 6.42
Light reading at time 15 min ([3]; +DTT): 4.073
Light reading at time 22 min ([3]; +DTT): 3.31
Light reading at time 30 min ([3]; +DTT): 2.708
Light reading at time 45 min ([3]; +DTT): 2.202
Light reading at time 60 min ([3]; +DTT): 1.996
Light reading at time 0 min ([3]; +EDTA): 1.067
Light reading at time 7 min ([3]; +EDTA): 0.117
Light reading at time 15 min ([3]; +EDTA): 0.058
Light reading at time 22 min ([3]; +EDTA): 0.042
Light reading at time 30 min ([3]; +EDTA): 0.024
Light reading at time 45 min ([3]; +EDTA): 0.046
Light reading at time 60 min ([3]; +EDTA): 0.012
Light reading at time 0 min ([3]; No addition): 23.46
Light reading at time 7 min ([3]; No addition): 3.144
Light reading at time 15 min ([3]; No addition): 1.767
Light reading at time 22 min ([3]; No addition): 1.317
Light reading at time 30 min ([3]; No addition): 1.22
Light reading at time 45 min ([3]; No addition): 0.982
Light reading at time 60 min ([3]; No addition): 0.851
Light reading at time 0 min ([3]; w/o ATP): 0
Light reading at time 7 min ([3]; w/o ATP): 0.017
Light reading at time 15 min ([3]; w/o ATP): 0.016
Light reading at time 22 min ([3]; w/o ATP): 0
Light reading at time 30 min ([3]; w/o ATP): 0
Light reading at time 45 min ([3]; w/o ATP): 0.017
Light reading at time 60 min ([3]; w/o ATP): 0.011
Light reading from residual active enzyme at time 0 min ([4]; +Co A): 163.3
Light reading from residual active enzyme at time 15 min ([4]; +Co A): 161.8
Light reading from residual active enzyme at time 30 min ([4]; +Co A): 147.7
Light reading from residual active enzyme at time 45 min ([4]; +Co A): 144.7
Light reading from residual active enzyme at time 60 min ([4]; +Co A): 145.6
Light reading from residual active enzyme at time 0 min ([4]; +DTT): 170
Light reading from residual active enzyme at time 15 min ([4]; +DTT): 172.3
Light reading from residual active enzyme at time 30 min ([4]; +DTT): 164.3
Light reading from residual active enzyme at time 45 min ([4]; +DTT): 161.6
Light reading from residual active enzyme at time 60 min ([4]; +DTT): 167.6
Light reading from residual active enzyme at time 0 min ([4]; +EDTA): 150.5
Light reading from residual active enzyme at time 15 min ([4]; +EDTA): 150
Light reading from residual active enzyme at time 30 min ([4]; +EDTA): 152.1
Light reading from residual active enzyme at time 45 min ([4]; +EDTA): 152.8
Light reading from residual active enzyme at time 60 min ([4]; +EDTA): 151
Light reading from residual active enzyme at time 0 min ([4]; No addition): 141.7
Light reading from residual active enzyme at time 15 min ([4]; No addition): 35.4
Light reading from residual active enzyme at time 30 min ([4]; No addition): 91.82
Light reading from residual active enzyme at time 45 min ([4]; No addition): 85.72
Light reading from residual active enzyme at time 60 min ([4]; No addition): 81.76
Light reading from residual active enzyme at time 0 min ([4]; w/o ATP): 170
Light reading from residual active enzyme at time 15 min ([4]; w/o ATP): 168.9
Light reading from residual active enzyme at time 30 min ([4]; w/o ATP): 175.6
Light reading from residual active enzyme at time 45 min ([4]; w/o ATP): 181.9
Light reading from residual active enzyme at time 60 min ([4]; w/o ATP): 173.6
